# In patent publication US10870678B2, “Chiral peptides” (ARCUATE THERAPEUTICS, INC., priority 2016, dated 2020):
# Like-named read-outs stand apart in the source and are kept apart here.
# System: HepG2 human liver cancer cell line
# Experiment: Functional Mitochondrial Toxicity Assay, XFe96 Seahorse (HepG2)
# Type: cell-based
# Protocol: The present Examples interrogate the two major energy producing pathways in the cell, mitochondrial respiration and glycolysis. HepG2 human liver cancer cell lines were dosed with test compounds and in real time the extracellular oxygen levels and pH were measured using the XFe96 flux analyser (Seahorse Biosciences). XFe Technology uses solid-state sensors to simultaneously measure both oxygen consumption rate (OCR) and extracellular acidification rate (ECAR) to determine effects on oxidative phosphorylation (OXPHOS) and glycolysis simultaneously. The cells were then subjected to sequential exposure to various inhibitors of mitochondrial functional to assess cellular metabolism.
# A positive mitochondrial active compound is determined when there is a change in OCR or ECAR in the absence of cytotoxicity. Cytotoxicity was determined when both oxidative phosphorylation (OCR) and glycolysis (ECAR) were inhibited.
# OCR is a measurement of oxygen content in extracellular media. Changes in OCR indicate effects on mitochondrial function, and can be bi-directional. A decrease is due to an inhibition of mitochondrial respiration, whilst an increase may indicate an uncoupler, in which respiration is not linked to energy production.
# ECAR is the measurement of extracellular proton concentration (pH). An increase in signal means an increase in rate in number of pH ions (Thus decreasing pH value), and seen as an increase in glycolysis. Expressed as a fraction of basal control (rate prior to addition of compound).
# Reverse capacity is the measured ability of cells to respond to an increase in energy demand, a reduction indicates mitochondrial dysfunction.
# The Mitochondrial Stress Test is a series of sequential additions of compounds to the cells to assess a bioenergetics profile, and effects of test compounds on parameters such as proton leak and research capacity. This was used to assist in understanding potential mechanisms of mitochondrial toxicity. For example, it involves the addition of the follow compounds in this order:
# Oligomycin is a known inhibitor of ATP synthase, and prevents the formation of ATP. This provides a measurement of the amount of oxygen consumption related to ATP production and ATP turnover. The addition of Oligomycin results in a decrease in OCR under normal conditions, and residual OCR is related to the natural proton leak.
# Carbonyl cyanide 4-(trifluoromethoxy)phenylhydrazine (FCCP) is a protonphore, and is a known uncoupler of oxygen consumption from ATP production. This allows the maximum achievable transfer of electrons and oxygen consumption rate, and provides a measurement of reserve capacity.
# Rotenone and antimycin A are known inhibitors of complex I and III of the electron transport chain, respectively. This inhibits electron transport completely, and any residual oxygen consumption is due to non-mitochondrial activity via oxygen requiring enzymes.
# [1] = HepG2, read-out: Reserve Capacity AC50
Compound,Potential Mechanism (HepG2),Reserve Capacity MEC (HepG2),Reserve Capacity ↑↓ (HepG2),"AC50 (HepG2, read-out: ECAR AC50)","AC50 (HepG2, read-out: OCR AC50)",AC50 [1],further results
"C=C(C)[C@H]1Cc2c(ccc3c2O[C@@H]2COc4cc(OC)c(OC)cc4[C@@H]2C3=O)O1 [Rotenone, reference compound]",ETC,<0.003 µM,↓,–,–,–,"ECAR MEC (HepG2): 0.00325 µM; ECAR ↑↓ (HepG2): ↑; OCR MEC (HepG2): <0.003 µM; OCR ↑↓ (HepG2): ↓; AC50 (Homo sapiens, HepG2, read-out: ECAR AC50): 0.496 µM; AC50 (Homo sapiens, HepG2, read-out: OCR AC50): 0.0138 µM; AC50 (Homo sapiens, HepG2, read-out: Reserve Capacity AC50): 0.00349 µM"
(D-Arg)(L-Dmt)(L-Lys)(L-Tyr)-NH2 [Peptide I-9],No effect,–,–,> 100 µM,> 100 µM,> 100 µM,–
(D-Arg)(L-Dmt)(L-Orn)(L-Phe)-NH2 [Peptide I-2],No effect,–,–,> 100 µM,> 100 µM,> 100 µM,–
(D-Arg)(L-Dmt)(L-Orn)(L-Tyr)-NH2 [Peptide I-10],No effect,–,–,> 100 µM,> 100 µM,> 100 µM,–
(D-Arg)(L-Leu)(L-Lys)(L-Phe)-NH2 [Peptide I-21],Other,62.5 µM,↑,> 100 µM,> 100 µM,> 100 µM,–
(D-Arg)(L-Leu)(L-Orn)(L-Leu)-NH2 [Peptide I-24],Other,33.8 µM,↑,> 100 µM,> 100 µM,> 100 µM,–
(D-Arg)(L-Leu)(L-Orn)(L-Phe)-NH2 [Peptide I-23],Other,65.9 µM,↑,> 100 µM,> 100 µM,> 100 µM,–
(D-Arg)(L-Phe)(L-Lys)(L-Phe)-NH2 [Peptide I-22],No effect,100 µM,↑,> 100 µM,> 100 µM,> 100 µM,–
(D-Arg)(L-Tyr)(L-Orn)(L-Phe)-NH2 [Peptide I-3],Other,–,↑,> 100 µM,> 100 µM,> 100 µM,"Reserve Capacity MEC (HepG2, listed as I-3 (1)): 48.5 µM; Reserve Capacity MEC (HepG2, listed as I-3 (2)): 85.3 µM"
(D-Leu)(D-Orn)(D-Leu)(L-Orn)-NH2 [Peptide I-37],Other,<0.1 µM,↓,> 100 µM,> 100 µM,1.11 µM,OCR MEC (HepG2): 143 µM; OCR ↑↓ (HepG2): ↓
(D-Lys)(L-Dmt)(L-Lys)(L-Phe)-NH2 [Peptide I-6],Other,50.3 µM,↑,> 100 µM,> 100 µM,> 100 µM,–
(D-Lys)(L-Dmt)(L-Orn)(L-Phe)-NH2 [Peptide I-7],No effect,–,–,> 100 µM,> 100 µM,> 100 µM,–
(D-Lys)(L-Leu)(L-Orn)(L-Leu)-NH2 [Peptide I-25],No effect,–,–,> 100 µM,> 100 µM,> 100 µM,–
(D-Lys)(L-Tyr)(L-Orn)(L-Phe)-NH2 [Peptide I-8],Other,79.7 µM,↑,> 100 µM,> 100 µM,> 100 µM,–
(D-Orn)((L-Dmt)(L-Orn)(L-Phe)-NH2 [Peptide I-4],No effect,–,–,> 100 µM,> 100 µM,> 100 µM,–
(D-Orn)(L-Leu)(L-Orn)(L-Leu)-NH2 [Peptide I-26],No effect,–,–,> 100 µM,> 100 µM,> 100 µM,–
(D-Orn)(L-Phe)(L-Orn)(L-Phe)-NH2 [Peptide I-27],No effect,–,–,> 100 µM,> 100 µM,> 100 µM,–
(D-Orn)(L-Tyr)(L-Orn)(L-Phe)-NH2 [Peptide I-5],Other,–,–,> 100 µM,> 100 µM,–,"Reserve Capacity MEC (HepG2, listed as I-5 (1)): 15.8 µM; Reserve Capacity ↑↓ (HepG2, listed as I-5 (1)): ↑; AC50 (HepG2, listed as I-5 (1), read-out: Reserve Capacity AC50): > 100 µM; Reserve Capacity MEC (HepG2, listed as I-5 (2)): <0.1 µM; Reserve Capacity ↑↓ (HepG2, listed as I-5 (2)): ↓; AC50 (HepG2, listed as I-5 (2), read-out: Reserve Capacity AC50): 0.954 µM"
(D-Phe)(D-Lys)(D-Leu)(L-Arg)-NH2 [Peptide I-34],Other,<0.1 µM,↓,> 100 µM,> 100 µM,0.957 µM,–
(D-Phe)(D-Orn)(D-Leu)(L-Arg)-NH2 [Peptide I-35],Other,<0.1 µM,↓,> 100 µM,> 100 µM,5.28 µM,–
(D-Phe)(D-Orn)(D-Leu)(L-Orn)-NH2 [Peptide I-36],Other,0.139 µM,↓,> 100 µM,> 100 µM,6.45 µM,–
(D-Phe)(D-Orn)(D-Phe)(L-Orn)-NH2 [Peptide I-38],No effect,–,–,> 100 µM,> 100 µM,> 100 µM,–
(D-Phe)(D-Orn)(D-Tyr)(L-Arg)-NH2 [Peptide I-16],Other,84.5 µM,↑,> 100 µM,> 100 µM,> 100 µM,–
(L-Leu)(L-Orn)(L-Leu)(D-Orn)-NH2 [Peptide I-32],Other,0.277 µM,↓,> 100 µM,> 100 µM,9.32 µM,–
(L-Phe)(L-Lys)(L-Leu)(D-Arg)-NH2 [Peptide I-28],Other,<0.1 µM,↓,> 100 µM,> 100 µM,1.28 µM,–
(L-Phe)(L-Lys)(L-Phe)(D-Arg)-NH2 [Peptide I-29],Other,0.203 µM,↓,> 100 µM,> 100 µM,4.17 µM,–
